{"source": "paper PMC12515563", "about": "“Kinetic, Spectral, and Structural Characterization of a Heme-Containing Peroxidase From the Skin of Cucurbita maxima” (Biochemistry Research International, 2025)", "biological_target": "T1, horseradish peroxidase (HRP) (Armoracia rusticana, UniProt P00433)", "T1 construct": "gene PRXC1A; commercial horseradish peroxidase", "T1 sequence (P00433 31-338)": "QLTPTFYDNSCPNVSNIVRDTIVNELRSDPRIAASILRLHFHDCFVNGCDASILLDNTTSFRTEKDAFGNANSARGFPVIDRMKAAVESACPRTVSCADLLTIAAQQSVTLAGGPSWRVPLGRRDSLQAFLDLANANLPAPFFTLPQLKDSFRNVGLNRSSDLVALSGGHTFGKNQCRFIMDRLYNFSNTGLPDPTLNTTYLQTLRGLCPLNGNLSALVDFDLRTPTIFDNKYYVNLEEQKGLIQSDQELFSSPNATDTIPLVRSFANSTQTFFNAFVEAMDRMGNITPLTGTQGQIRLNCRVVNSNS", "assay": "UV-vis absorption difference spectra (data not shown)", "type": "binding"}
{"smiles": "CC(=O)O", "note": "[acetate]", "values": [{"measurement": "UV-vis absorption difference spectra (data not shown)", "result": "both HRP and PKS demonstrated similar effects with acetate in the current study (data not shown)"}]}
